Read-outs that look alike come from different tables or passages of the source.
Tests used:
human TRPA1 = biological target: T1, human TRPA1 (Homo sapiens, UniProt O75762, K186N/R3C/R58T); assay: Intracellular calcium (Fluo-4, FLIPR) activation of TRPA1 cells by GRAS compounds; format: cell-based; details: for activation at 1000 µM / activation at 100 µM: read-out: A1 activation, % of agonist value;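 on all read-outs here: TRPA1-expressing cells, fluorescence read on a FLIPR Tetra (ex 488 nm, em 514 nm) every 2 s for 10 min after compound addition, baseline subtracted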
T1 construct: expressed in transfected cells; pcDNA3 control cells

TRPA1V1 = assay: Intracellular calcium (Fluo-4, FLIPR) activation of TRPA1V1 cells (co-expressing TRPA1 and TRPV1) by GRAS compounds; format: cell-based, human; details: relative to AITC 30 μM;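 further: HEK293 cells co-expressing TRPA1 and TRPV1, fluorescence read at 488/514 nm after baseline subtraction, recorded every 2 s over 10 min, ionomycin 10 µM and buffer as controls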
Procedure: TRPV1, TRPA1, TRPA1V1 and pcDNA3 cells were grown in 15 mL growth medium [high glucose DMEM (Dulbecco's modification of Eagle's medium) supplemented with 10% FBS (fetal bovine serum), 100 μg/mL penicillin/streptomycin, 100 μg/mL G418] in a 75 cm^2 flask for 3 days in a mammalian cell culture incubator at 33° C. and 5% CO2. TRP Cells were detached with 8 mL of PBS (without calcium or magnesium); for pcDNA3 cells, trypsin was used for releasing the cells. The detached cells were spun at low speed (800-900 rpm for 3 min) to pellet the cells. […] The cells were washed once with 45 mL assay buffer (1×HBSS, 20 mM HEPES) by low speed centrifugation (800-900 rpm for 3 min) and resuspended in 11 mL of the assay buffer in a reagent reservoir. […] The plates were set at room temperature for 30 min. The plates were read in a FLIPR^TETRA instrument (Molecular Devices, Sunnyvale, Calif.) at λex 488 nm and λem 514 nm to record baseline fluorescence following which 20 μL of test material at 1 mM or 100 μM final concentration for pure compounds in a GRAS library or 0.004% for extracts. For agonists, capsaicin 350 nM and AITC at 30 μM; and for controls, ionomycin 10 μM and buffer alone) was added to each well using the dispenser provided in the FLIPR. The data point was recorded every 2 seconds for a total of 10 min.
Average value for activation from three independent assay plates are presented as % of agonist value (AITC, 30 μM for TRPA1 and capsaicin, 350 nM for TRPV1. For TRPA1V1, we used AITC, 30 μM or capsaicin, 350 nM depending on if the compound is an A1 agonist or a V1 agonist. For compounds that activated both A1 and V1, we used AITC for normalization). Variation among triplicates was within 10% of each other. Assayed at 1 mM for pure compounds and 0.004% for extracts.

[1] = Table 1(d), 1 mM, relative to AITC 30 μM
[2] = Table 1(e), 1 mM, relative to AITC 30 μM
[3] = Table 1(c), 1 mM, relative to AITC 30 μM
[4] = Table 1(c), relative to AITC 30 μM

T1 sequence (O75762 whole entry R3C/R58T/K186N): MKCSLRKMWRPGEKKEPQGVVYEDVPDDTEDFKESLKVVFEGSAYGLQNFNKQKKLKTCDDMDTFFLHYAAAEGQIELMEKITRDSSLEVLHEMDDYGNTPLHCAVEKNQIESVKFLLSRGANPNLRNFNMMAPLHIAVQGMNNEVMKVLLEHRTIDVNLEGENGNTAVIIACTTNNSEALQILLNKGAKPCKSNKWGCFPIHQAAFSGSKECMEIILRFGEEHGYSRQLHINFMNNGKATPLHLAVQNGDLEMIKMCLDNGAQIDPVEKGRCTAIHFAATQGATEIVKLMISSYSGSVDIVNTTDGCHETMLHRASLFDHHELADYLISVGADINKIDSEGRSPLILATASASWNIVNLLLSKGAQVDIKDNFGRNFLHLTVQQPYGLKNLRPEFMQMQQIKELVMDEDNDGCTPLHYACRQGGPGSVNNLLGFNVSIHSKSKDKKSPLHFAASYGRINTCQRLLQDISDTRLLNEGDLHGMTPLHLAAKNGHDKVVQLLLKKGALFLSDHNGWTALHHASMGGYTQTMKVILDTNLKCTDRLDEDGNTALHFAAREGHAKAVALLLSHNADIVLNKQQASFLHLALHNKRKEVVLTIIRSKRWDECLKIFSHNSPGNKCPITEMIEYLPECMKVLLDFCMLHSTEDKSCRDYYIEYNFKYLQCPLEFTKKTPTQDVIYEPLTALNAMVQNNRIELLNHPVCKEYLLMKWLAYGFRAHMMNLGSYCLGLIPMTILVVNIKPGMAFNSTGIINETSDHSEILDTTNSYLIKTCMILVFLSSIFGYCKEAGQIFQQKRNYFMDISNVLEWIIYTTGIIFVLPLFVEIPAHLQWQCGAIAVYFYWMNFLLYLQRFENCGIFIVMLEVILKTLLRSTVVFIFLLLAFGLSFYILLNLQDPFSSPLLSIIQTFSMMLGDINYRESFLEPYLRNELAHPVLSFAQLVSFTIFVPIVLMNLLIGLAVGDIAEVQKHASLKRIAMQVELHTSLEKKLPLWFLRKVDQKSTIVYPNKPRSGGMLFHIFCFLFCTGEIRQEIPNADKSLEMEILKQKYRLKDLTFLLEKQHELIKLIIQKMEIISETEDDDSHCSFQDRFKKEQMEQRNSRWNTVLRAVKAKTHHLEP

`CCCCC/C=C\CCO` [Cis-3-nonen-1-ol] was tested, and the activation at 1000 µM (human TRPA1; [1]) was 55% and the “A1V1 activation, % of agonist value” (TRPA1V1; Table 1(d), 1 mM) was 41.22%.

With `COC(C=C(C)CCC=C(C)C)OC` [Citral dimethyl acetal] the activation at 1000 µM (human TRPA1; [2]) was 102% and the “A1V1 activation, % of agonist value” (TRPA1V1; Table 1(e), 1 mM) was 137.2%.

For `CC(C)=CCCC(C)=CC=O` [Citral], the activation at 1000 µM (human TRPA1; [3]) was 145% and the “A1V1 activation, % of agonist value” (TRPA1V1; Table 1(c), 1 mM) was 132.7%.

`CCCC(=O)OCCC(C)CCC=C(C)C` (stereo not drawn) [Citronellyl butyrate] was tested, and the activation at 100 µM (human TRPA1; [4]) was 44.9% and the “A1V1 activation, % of agonist value” (TRPA1V1; Table 1(c), 100 μM (*)) was 57.9%.

With `CCC(=O)OCCC(C)CCC=C(C)C` (stereo not drawn) [Citronellyl propionate] the activation at 100 µM (human TRPA1; [4]) was 52.5% and the “A1V1 activation, % of agonist value” (TRPA1V1; Table 1(c), 100 μM (*)) was 43.2%.

For `CC(C=O)Cc1ccc(C(C)C)cc1` (stereo not drawn) [Cyclamen aldehyde], the “A1 activation, % of agonist value” (human TRPA1; [2]) was 94.1% and the “A1V1 activation, % of agonist value” (TRPA1V1; Table 1(e), 1 mM) was 120.9%.

In the case of `CCCCCCCCCC(=O)O` [Decanoic acid], the activation at 1000 µM (human TRPA1; [3]) is reported as 65.1% and the “A1V1 activation, % of agonist value” (TRPA1V1; Table 1(c), 1 mM) is reported as 73.45%.

With `CC(=O)CCC1=C(C)CCCC1(C)C` [Dihydro-beta-ionone] the “A1 activation, % of agonist value” (human TRPA1; [3]) was 64.4% and the “A1V1 activation, % of agonist value” (TRPA1V1; Table 1(c), 1 mM) was 64.07%.

In the case of `CCOC(=O)C(Cc1ccccc1)C(C)=O` (stereo not drawn) [Ethyl 2-benzylacetoacetate], the activation at 1000 µM (human TRPA1) is reported as 98% and the “A1V1 activation, % of agonist value” (TRPA1V1; Table 1(c), 1 mM) is reported as 115%.

With `CCOC(=O)C(C)S` (stereo not drawn) [Ethyl 2-mercaptopropionate] the activation at 100 µM (human TRPA1; [4]) was 88.3% and the “A1V1 activation, % of agonist value” (TRPA1V1; Table 1(c), 100 μM (*)) was 70.2%.

`CCCCCC=CC(=O)OCC` [Ethyl 2-octenoate] was tested, and the activation at 1000 µM (human TRPA1; [3]) was 128% and the “A1V1 activation, % of agonist value” (TRPA1V1; Table 1(c), 1 mM) was 120%.

In the case of `CCCCCC(=O)CCCC(=O)OCC` [Ethyl 5-oxodecanoate], the activation at 1000 µM (human TRPA1; [1]) is reported as 51% and the “A1V1 activation, % of agonist value” (TRPA1V1; Table 1(d), 1 mM) is reported as 28.24%.

In the case of `CCOC(=O)c1ccccc1` [Ethyl benzoate], the activation at 1000 µM (human TRPA1; [3]) is reported as 70% and the “A1V1 activation, % of agonist value” (TRPA1V1; Table 1(c), 1 mM) is reported as 60%.

`CCOC(=O)CCc1ccccc1` [Ethyl hydrocinnamate] was tested, and the activation at 1000 µM (human TRPA1; [1]) was 72.2% and the “A1V1 activation, % of agonist value” (TRPA1V1; Table 1(d), 1 mM) was 50.9%.

With `CCOC(=O)c1ccc(OC)cc1` [Ethyl p-anisate] the activation at 1000 µM (human TRPA1; [3]) was 91.2% and the “A1V1 activation, % of agonist value” (TRPA1V1; Table 1(c), 1 mM) was 93.1%.

With `CCOC(=O)c1ccccc1O` [Ethyl salicylate] the activation at 1000 µM (human TRPA1; [1]) was 41% and the “A1V1 activation, % of agonist value” (TRPA1V1; Table 1(d), 1 mM) was 28%.

In the case of `CCOc1cc(C2OCC(C)O2)ccc1O` (stereo not drawn) [Ethyl vanillin propylene glycol acetal], the “A1 activation, % of agonist value” (human TRPA1; [3]) is reported as 66.41% and the “A1V1 activation, % of agonist value” (TRPA1V1; Table 1(c), 1 mM) is reported as 72.64%.

In the case of `C=CC(=O)CC` [Ethyl vinyl ketone], the activation at 1000 µM (human TRPA1; [1]) is reported as 79.5% and the “A1V1 activation, % of agonist value” (TRPA1V1; Table 1(d), 1 mM) is reported as 40.61%.

For `C=CCc1ccc(O)c(OC)c1` [Eugenol], the activation at 1000 µM (human TRPA1; [3]) was 79% and the “A1V1 activation, % of agonist value” (TRPA1V1; Table 1(c), 1 mM) was 91.29%.

`C=CCc1ccc(OC(C)=O)c(OC)c1` [Eugenyl acetate] was tested, and the activation at 1000 µM (human TRPA1; [3]) was 75.4% and the “A1V1 activation, % of agonist value” (TRPA1V1; Table 1(c), 1 mM) was 83.94%.

`C=CCc1ccc(OC(=O)CC(C)C)c(OC)c1` [Eugenyl isovalerate] was tested, and the activation at 1000 µM (human TRPA1; [2]) was 59.7% and the “A1V1 activation, % of agonist value” (TRPA1V1; Table 1(e), 1 mM) was 79.29%.

In the case of `c1ccc(CCCC2CCCO2)cc1` (stereo not drawn) [Furan, tetrahydro-2-(3-phenylpropyl)-], the activation at 1000 µM (human TRPA1; [2]) is reported as 26% and the “A1V1 activation, % of agonist value” (TRPA1V1; Table 1(e), 1 mM) is reported as 72.09%.

With `CC(=O)OCc1ccco1` [Furfuryl acetate] the activation at 1000 µM (human TRPA1; [1]) was 120% and the “A1V1 activation, % of agonist value” (TRPA1V1; Table 1(d), 1 mM) was 91.3%.

In the case of `CC(=O)SCc1ccco1` [Furfurylthiol acetate], the “A1 activation, % of agonist value” (human TRPA1; [1]) is reported as 75.5% and the “A1V1 activation, % of agonist value” (TRPA1V1; Table 1(d), 1 mM) is reported as 60%.

For `CCCCCCOC(=O)CCC` [Hexyl butyrate], the activation at 1000 µM (human TRPA1; [2]) was 43.2% and the “A1V1 activation, % of agonist value” (TRPA1V1; Table 1(e), 1 mM) was 55.89%.

In the case of `CCCCCCOC(=O)c1cccnc1` [Hexyl nicotinate], the activation at 1000 µM (human TRPA1; [1]) is reported as 72.9% and the “A1V1 activation, % of agonist value” (TRPA1V1; Table 1(d), 1 mM) is reported as 54.4%.

With `CC(=O)OCCC(C)C` [Isoamyl acetate] the activation at 1000 µM (human TRPA1; [3]) was 49.6% and the “A1V1 activation, % of agonist value” (TRPA1V1; Table 1(c), 1 mM) was 61.80%.

`CNc1ccccc1C(=O)OCC(C)C` [Isobutyl N-methyl anthranilate] was tested, and the “A1 activation, % of agonist value” (human TRPA1; [1]) was 59.73% and the “A1V1 activation, % of agonist value” (TRPA1V1; Table 1(d), 1 mM) was 36.7%.

With `CC=Cc1ccc(OC(C)=O)c(OC)c1` [Isoeugenyl acetate] the activation at 1000 µM (human TRPA1; [3]) was 57.6% and the “A1V1 activation, % of agonist value” (TRPA1V1; Table 1(c), 1 mM) was 68.34%.

With `CC=Cc1ccc(OC(=O)Cc2ccccc2)c(OC)c1` [Isoeugenyl phenylacetate] the activation at 1000 µM (human TRPA1; [3]) was 59.1% and the “A1V1 activation, % of agonist value” (TRPA1V1; Table 1(c), 1 mM) was 58.40%.

In the case of `CC(C)N=C=S` [Isopropyl isothiocyanate], the activation at 1000 µM (human TRPA1; [2]) is reported as 41.8% and the “A1V1 activation, % of agonist value” (TRPA1V1; Table 1(e), 1 mM) is reported as 71.6%.

In the case of `CC(C)OC(=O)Cc1ccccc1` [Isopropyl phenylacetate], the activation at 1000 µM (human TRPA1; [1]) is reported as 80.2% and the “A1V1 activation, % of agonist value” (TRPA1V1; Table 1(d), 1 mM) is reported as 60.9%.

In the case of `C=CCCCN=C=S` [Isothiocyanic acid 4-penten-1-yl ester], the activation at 100 µM (human TRPA1; [4]) is reported as 51.6%, the activation at 1000 µM (human TRPA1; [2]) is reported as 62.2% and the “A1V1 activation, % of agonist value” (TRPA1V1; Table 1(c), 100 μM (*)) is reported as 47.3%. The “A1V1 activation, % of agonist value” (TRPA1V1; Table 1(e), 1 mM) was 74.8%.

In the case of `CC(=O)O[C@@H]1C[C@H](C)CC[C@H]1C(C)C` [L-Menthyl acetate], the “A1 activation, % of agonist value” (human TRPA1; [2]) is reported as 44.88% and the “A1V1 activation, % of agonist value” (TRPA1V1; Table 1(e), 1 mM) is reported as 60.47%.

For `C=C(C)[C@@H]1CC=C(C=O)CC1` [L-Perillaldehyde], the “A1 activation, % of agonist value” (human TRPA1; [3]) was 127.7% and the “A1V1 activation, % of agonist value” (TRPA1V1; Table 1(c), 1 mM) was 138.2%.

Source: patent US9427415B2, “Methods and compositions for modifying sensorial perception” (The Procter & Gamble Company, priority 2014, dated 2016)
